Measurements published in patent US8822517B2, “Arylosulfonamides for the treatment of CNS diseases” (Adamed SP. Z O.O., priority 2010, dated 2014).

Experiments:
[1] = biological target: T1, serotonine transporter (SERT) receptor (Homo sapiens, UniProt P31645); assay: Binding assay SERT (h), [3H]imipramine, CHO cells; conditions: read-out: SERT [%]
T1 construct: expressed in transfected cells; host or cells: CHO cells
Outline: (§1)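 Detection relied on scintillation counting of bound ligand. Compounds at 1×10^−6 M were evaluated against specific binding, i.e. total binding corrected for the nonspecific fraction seen with excess unlabelled ligand.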

sigma σ receptor = assay: Binding assay σ (non-selective), [3H]DTG, rat cerebral cortex; conditions: percent inhibition of control specific binding; compounds tested at 1×10^−6 M
Outline: as §1

adrenergic α1 receptor = assay: Binding assay α1 (non-selective), [3H]prazosin, rat cerebral cortex; conditions: percent inhibition of control specific binding; compounds tested at 1×10^−6 M
Outline: as §1

muscarinic M3 receptor = biological target: T2, muscarinic M3 receptor (Homo sapiens, UniProt P20309); assay: Binding assay M3 (h), [3H]4-DAMP, CHO cells; conditions: read-out: M3 [%]
T2 construct: expressed in transfected cells; host or cells: CHO cells
Outline: as §1

[2] = biological target: T3, serotoninergic receptor 5-HT2C (Homo sapiens, UniProt P28335); assay: Binding assay 5-HT2C (h), [3H]mesulergine, HEK-293 cells; conditions: read-out: 5-HT2C [%]
T3 construct: expressed in transfected cells; host or cells: HEK-293 cells
T3 sequence (P28335 33-458): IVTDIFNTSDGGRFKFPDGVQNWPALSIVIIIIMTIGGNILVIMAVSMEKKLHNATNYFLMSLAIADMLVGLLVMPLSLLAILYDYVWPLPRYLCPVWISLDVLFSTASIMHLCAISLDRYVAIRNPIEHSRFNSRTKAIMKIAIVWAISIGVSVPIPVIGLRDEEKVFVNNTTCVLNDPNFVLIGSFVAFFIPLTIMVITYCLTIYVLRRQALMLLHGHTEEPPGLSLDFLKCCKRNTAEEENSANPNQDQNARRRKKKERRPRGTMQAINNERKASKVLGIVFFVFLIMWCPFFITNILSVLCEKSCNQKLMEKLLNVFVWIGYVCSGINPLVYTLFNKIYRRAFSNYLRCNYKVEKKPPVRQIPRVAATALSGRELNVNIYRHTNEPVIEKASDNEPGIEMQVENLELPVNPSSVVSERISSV
Outline: as §1

[3] = biological target: T4, serotoninergic 5-HT6 receptor (Homo sapiens, UniProt P50406); assay: Cellular functional assay, serotoninergic 5-HT6 receptor (agonism/antagonism); type: cell-based; conditions: for inhibition at 1 µM: read-out: 5-HT6-antag. [%]
T4 sequence (P50406 whole entry): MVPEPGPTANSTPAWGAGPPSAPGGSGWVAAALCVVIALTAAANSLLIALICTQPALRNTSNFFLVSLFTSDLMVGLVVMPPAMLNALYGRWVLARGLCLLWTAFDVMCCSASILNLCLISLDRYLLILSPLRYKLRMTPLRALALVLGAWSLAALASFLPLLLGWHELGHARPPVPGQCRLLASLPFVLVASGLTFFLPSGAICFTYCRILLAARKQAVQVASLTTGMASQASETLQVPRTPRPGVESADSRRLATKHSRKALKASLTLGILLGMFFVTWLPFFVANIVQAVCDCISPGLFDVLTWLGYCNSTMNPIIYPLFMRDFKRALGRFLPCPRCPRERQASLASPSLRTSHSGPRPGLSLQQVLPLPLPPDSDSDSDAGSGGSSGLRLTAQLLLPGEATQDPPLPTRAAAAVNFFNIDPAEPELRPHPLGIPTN
Protocol: (§2) The compounds were tested at the concentration of 1×10^−6M.
(§3) In the Tables ag refers to agonism, and antag to antagonism).

[4] = biological target: T5, serotoninergic 5-HT7 receptor (Homo sapiens, UniProt P34969); assay: Cellular functional assay, serotoninergic 5-HT7 receptor (agonism/antagonism); type: cell-based; conditions: for inhibition at 1 µM: read-out: 5-HT7-antag. [%]
T5 sequence (P34969 whole entry): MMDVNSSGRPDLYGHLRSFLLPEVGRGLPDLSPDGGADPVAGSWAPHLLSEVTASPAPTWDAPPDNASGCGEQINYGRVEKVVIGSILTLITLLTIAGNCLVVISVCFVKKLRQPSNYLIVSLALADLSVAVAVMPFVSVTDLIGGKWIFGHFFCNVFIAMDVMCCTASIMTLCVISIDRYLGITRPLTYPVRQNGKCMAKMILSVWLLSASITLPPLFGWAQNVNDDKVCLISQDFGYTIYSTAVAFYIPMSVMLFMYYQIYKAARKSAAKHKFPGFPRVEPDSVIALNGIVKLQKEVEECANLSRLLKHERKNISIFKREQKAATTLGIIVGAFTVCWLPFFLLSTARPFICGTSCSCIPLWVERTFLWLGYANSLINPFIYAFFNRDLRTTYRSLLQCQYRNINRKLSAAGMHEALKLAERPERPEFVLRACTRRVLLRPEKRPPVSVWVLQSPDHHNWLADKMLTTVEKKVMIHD
Protocol: as §2, §3

dopaminergic D3 receptor = dopaminergic D3 receptor (Homo sapiens, UniProt P35462); assay: Binding assay D3 (h), [3H]methyl-spiperone, CHO cells; parameters: expressed in transfected cells; host or cells: CHO cells; conditions: read-out: D3 [%]
Chain of dopaminergic D3 receptor (P35462 whole entry): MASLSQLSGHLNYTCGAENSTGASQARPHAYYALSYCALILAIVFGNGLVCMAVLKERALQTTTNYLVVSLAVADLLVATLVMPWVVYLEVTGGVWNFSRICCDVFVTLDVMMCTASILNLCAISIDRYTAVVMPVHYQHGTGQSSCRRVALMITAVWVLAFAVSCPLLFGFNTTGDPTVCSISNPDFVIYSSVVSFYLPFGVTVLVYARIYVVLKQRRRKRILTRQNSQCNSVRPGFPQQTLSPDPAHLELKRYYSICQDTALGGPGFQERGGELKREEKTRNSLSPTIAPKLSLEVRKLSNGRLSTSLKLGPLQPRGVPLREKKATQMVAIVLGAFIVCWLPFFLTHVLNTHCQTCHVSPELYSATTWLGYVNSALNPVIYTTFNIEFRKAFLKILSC
Outline: as §1

[5] = biological target: T4, serotoninergic 5-HT6 receptor; assay: Binding assay 5-HT6 (h), [3H]LSD, CHO cells; parameters: expressed in transfected cells; host or cells: CHO cells; conditions: read-out: 5-HT6
Outline: as §1

[6] = biological target: T5, serotoninergic 5-HT7 receptor; assay: Binding assay 5-HT7 (h), [3H]LSD, CHO cells; parameters: expressed in transfected cells; host or cells: CHO cells; conditions: read-out: 5-HT7
Outline: as §1

adrenergic α2C receptor = biological target: T6, adrenergic α2C receptor (Homo sapiens, UniProt P18825); assay: Binding assay α2C (h), [3H]RX 821002, CHO cells; parameters: expressed in transfected cells; host or cells: CHO cells; conditions: read-out: α2C [%]
T6 sequence (P18825 1-462): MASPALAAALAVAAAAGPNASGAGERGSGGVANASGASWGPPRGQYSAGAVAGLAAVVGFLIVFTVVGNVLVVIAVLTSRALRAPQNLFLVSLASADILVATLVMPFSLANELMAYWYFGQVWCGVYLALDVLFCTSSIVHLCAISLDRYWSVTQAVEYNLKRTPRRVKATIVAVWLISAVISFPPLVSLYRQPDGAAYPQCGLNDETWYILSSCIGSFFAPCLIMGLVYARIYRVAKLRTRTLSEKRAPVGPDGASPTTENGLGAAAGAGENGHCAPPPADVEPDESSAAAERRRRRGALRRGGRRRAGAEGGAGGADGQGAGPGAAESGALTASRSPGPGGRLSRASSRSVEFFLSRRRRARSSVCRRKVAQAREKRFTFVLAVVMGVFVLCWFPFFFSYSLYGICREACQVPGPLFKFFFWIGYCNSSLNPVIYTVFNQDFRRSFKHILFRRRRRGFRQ
Outline: as §1

dopaminergic D2 receptor [7] = biological target: T7, dopaminergic D2 receptor (Homo sapiens, UniProt P14416); assay: Binding assay D2S (h), [3H]methyl-spiperone, HEK-293 cells; parameters: expressed in transfected cells; host or cells: HEK-293 cells; conditions: read-out: D2 [%]
Outline: as §1
Target sequence in this assay (P14416 1-414 isoform P14416-2): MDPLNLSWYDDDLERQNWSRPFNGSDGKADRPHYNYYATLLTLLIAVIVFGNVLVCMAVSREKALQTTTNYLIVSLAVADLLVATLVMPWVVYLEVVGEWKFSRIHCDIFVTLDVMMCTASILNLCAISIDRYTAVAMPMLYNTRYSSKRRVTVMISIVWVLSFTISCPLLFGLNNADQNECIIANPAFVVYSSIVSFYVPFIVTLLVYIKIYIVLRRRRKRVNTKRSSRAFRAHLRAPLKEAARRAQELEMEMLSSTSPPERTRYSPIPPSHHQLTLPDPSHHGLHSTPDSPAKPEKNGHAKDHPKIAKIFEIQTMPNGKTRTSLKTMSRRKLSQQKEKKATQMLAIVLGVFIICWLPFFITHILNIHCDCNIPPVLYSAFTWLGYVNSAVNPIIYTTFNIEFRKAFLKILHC

[8] = biological target: T8, serotoninergic 5-HT1A receptor (Homo sapiens, UniProt P08908); assay: Binding assay 5-HT1A (h), [3H]8-OH-DPAT, HEK-293 cells; parameters: expressed in transfected cells; host or cells: HEK-293 cells; conditions: read-out: 5-HT1A
T8 sequence (P08908 1-422): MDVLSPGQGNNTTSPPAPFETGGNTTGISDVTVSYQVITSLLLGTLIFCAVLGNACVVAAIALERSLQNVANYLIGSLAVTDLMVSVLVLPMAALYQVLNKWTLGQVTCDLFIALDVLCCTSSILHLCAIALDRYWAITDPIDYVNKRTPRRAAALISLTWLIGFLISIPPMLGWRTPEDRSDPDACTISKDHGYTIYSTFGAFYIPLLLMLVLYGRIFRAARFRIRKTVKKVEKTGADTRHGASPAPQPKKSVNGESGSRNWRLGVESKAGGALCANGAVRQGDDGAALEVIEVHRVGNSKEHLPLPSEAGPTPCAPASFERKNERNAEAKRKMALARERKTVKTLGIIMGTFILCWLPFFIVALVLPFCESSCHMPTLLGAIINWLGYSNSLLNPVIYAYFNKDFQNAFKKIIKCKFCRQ
Outline: as §1

[9] = biological target: serotoninergic 5-HT2A receptor (Homo sapiens, UniProt P28223); assay: Binding assay 5-HT2A (h), [3H]ketanserin, HEK-293 cells; parameters: expressed in transfected cells; host or cells: HEK-293 cells; conditions: read-out: 5-HT2A
Chain of serotoninergic 5-HT2A receptor (P28223 whole entry): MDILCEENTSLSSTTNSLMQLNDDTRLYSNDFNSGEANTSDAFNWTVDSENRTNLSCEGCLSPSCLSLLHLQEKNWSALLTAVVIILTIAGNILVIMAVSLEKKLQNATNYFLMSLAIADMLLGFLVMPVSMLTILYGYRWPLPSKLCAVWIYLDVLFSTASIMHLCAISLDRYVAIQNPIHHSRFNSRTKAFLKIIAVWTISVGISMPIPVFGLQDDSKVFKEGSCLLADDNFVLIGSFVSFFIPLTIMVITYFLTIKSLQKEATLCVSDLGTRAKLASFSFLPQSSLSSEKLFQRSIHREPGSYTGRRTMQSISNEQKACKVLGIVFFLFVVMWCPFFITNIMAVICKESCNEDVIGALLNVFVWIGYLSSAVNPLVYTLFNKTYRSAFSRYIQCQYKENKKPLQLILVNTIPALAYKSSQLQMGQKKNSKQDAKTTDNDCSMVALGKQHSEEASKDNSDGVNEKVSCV
Outline: as §1

[10] = biological target: histaminergic H1 receptor (Homo sapiens, UniProt P35367); assay: Binding assay H1 (h), [3H]pyrilamine, HEK-293 cells; parameters: expressed in transfected cells; host or cells: HEK-293 cells; conditions: read-out: H1 [%]
Chain of histaminergic H1 receptor (P35367 whole entry): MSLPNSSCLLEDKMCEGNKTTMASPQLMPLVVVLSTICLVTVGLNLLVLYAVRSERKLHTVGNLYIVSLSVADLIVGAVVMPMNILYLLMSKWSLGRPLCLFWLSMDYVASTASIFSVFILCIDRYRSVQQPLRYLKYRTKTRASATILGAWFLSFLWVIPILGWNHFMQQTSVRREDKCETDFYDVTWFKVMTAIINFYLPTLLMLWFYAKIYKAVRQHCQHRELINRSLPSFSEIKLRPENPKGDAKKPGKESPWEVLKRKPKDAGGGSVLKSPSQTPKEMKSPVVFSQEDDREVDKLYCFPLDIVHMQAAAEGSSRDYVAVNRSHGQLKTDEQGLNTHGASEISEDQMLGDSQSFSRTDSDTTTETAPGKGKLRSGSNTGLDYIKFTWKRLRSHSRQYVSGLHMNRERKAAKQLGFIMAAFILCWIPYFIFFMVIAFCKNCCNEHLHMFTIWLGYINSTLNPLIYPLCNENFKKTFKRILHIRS
Outline: as §1

hERG potassium channels = hERG potassium channels (Homo sapiens, UniProt Q12809); assay: hERG potassium channel block, electrophysiology (IonWorks Quattro), CHO cells; conditions: % block of hERG current, cloned hERG channels in CHO cells, IonWorks Quattro
Chain of hERG potassium channels (Q12809 whole entry): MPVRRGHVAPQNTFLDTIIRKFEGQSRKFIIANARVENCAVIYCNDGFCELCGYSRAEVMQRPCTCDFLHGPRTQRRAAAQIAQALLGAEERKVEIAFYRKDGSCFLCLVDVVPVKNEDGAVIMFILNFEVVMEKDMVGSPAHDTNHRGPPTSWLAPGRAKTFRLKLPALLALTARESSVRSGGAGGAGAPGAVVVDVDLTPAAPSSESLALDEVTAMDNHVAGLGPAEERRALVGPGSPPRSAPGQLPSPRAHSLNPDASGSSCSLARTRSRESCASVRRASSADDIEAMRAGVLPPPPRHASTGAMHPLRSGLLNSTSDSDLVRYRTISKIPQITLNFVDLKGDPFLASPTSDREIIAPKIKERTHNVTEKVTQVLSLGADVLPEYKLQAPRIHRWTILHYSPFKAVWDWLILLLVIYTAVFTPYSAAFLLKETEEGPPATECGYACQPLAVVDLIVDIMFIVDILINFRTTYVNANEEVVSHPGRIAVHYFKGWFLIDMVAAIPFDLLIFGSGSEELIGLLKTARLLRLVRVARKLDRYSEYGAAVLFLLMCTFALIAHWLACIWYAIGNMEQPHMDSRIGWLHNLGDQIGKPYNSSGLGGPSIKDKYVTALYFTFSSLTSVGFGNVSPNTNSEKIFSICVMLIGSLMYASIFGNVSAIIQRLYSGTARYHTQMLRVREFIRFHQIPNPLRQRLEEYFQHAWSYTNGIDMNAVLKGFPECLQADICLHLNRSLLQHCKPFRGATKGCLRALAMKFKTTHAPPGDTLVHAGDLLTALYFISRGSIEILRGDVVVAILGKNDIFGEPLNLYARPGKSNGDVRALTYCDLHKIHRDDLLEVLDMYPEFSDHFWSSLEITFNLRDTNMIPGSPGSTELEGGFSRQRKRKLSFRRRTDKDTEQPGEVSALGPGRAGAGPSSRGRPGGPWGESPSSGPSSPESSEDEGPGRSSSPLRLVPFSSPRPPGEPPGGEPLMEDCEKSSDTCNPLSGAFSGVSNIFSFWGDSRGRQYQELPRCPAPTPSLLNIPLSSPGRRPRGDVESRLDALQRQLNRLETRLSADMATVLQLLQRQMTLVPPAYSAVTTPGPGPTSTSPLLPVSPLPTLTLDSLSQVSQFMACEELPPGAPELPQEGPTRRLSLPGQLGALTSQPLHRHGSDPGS

dopaminergic D2 receptor [11] = biological target: T7, dopaminergic D2 receptor; assay: Cellular functional assay, dopaminergic D2 receptor (agonism/antagonism); type: cell-based
Protocol: as §2, §3
Target sequence in this assay (P14416 whole entry): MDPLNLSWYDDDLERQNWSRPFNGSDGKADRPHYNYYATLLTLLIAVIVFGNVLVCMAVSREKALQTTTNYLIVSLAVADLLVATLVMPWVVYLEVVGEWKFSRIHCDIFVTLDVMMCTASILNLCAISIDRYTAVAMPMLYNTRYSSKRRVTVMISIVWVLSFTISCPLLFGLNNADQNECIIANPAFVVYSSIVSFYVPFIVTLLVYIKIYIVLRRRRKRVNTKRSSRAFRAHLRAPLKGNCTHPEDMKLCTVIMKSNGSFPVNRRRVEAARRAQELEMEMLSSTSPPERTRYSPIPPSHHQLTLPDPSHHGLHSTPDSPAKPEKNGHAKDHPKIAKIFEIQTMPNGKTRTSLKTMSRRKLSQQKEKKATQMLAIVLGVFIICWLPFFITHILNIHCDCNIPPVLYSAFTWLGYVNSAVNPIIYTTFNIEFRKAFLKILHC

[12] = biological target: T8, serotoninergic 5-HT1A receptor; assay: Cellular functional assay, serotoninergic 5-HT1A receptor (agonism/antagonism); type: cell-based
Protocol: as §2, §3

T1 sequence (P31645 whole entry): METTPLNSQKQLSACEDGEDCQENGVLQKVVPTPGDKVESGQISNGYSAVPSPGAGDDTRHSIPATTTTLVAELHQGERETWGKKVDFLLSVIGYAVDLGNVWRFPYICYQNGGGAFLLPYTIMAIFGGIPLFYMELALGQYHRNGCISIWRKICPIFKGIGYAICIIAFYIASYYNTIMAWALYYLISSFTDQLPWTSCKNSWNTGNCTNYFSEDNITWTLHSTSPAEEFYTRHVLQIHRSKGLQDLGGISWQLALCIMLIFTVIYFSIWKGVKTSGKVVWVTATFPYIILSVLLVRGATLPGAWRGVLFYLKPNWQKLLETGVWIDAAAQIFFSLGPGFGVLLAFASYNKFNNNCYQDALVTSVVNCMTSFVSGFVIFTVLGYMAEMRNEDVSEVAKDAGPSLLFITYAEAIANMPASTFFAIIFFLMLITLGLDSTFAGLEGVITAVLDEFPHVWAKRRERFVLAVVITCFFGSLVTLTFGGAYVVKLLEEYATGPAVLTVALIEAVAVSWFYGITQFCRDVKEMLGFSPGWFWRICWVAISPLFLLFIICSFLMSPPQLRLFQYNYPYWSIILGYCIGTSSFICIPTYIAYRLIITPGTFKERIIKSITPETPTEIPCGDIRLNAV

Compound | inhibition at 1 µM [1] | α1 [%] (adrenergic α1 receptor) | inhibition at 1 µM (muscarinic M3 receptor) | inhibition at 1 µM [2] | inhibition at 1 µM [3] | inhibition at 1 µM [4] | inhibition at 1 µM (dopaminergic D3 receptor) | inhibition at 1 µM [5] | inhibition at 1 µM [6] | inhibition at 1 µM (adrenergic α2C receptor) | inhibition at 1 µM (dopaminergic D2 receptor [7]) | inhibition at 1 µM [8] | inhibition at 1 µM [9] | inhibition at 1 µM [10] | hERG [%] (hERG potassium channels) | also measured
O=S(=O)(NCCCN1CCN(c2nsc3ccccc23)CC1)c1ccc2ccccc2c1 [Compound 6, N-(3-(4-(1,2-Benzothiazol-3-yl)piperazin-1-yl)propyl)naphthalene-2-sulphonamide] | 95% | 95% | -1% | 88% | 26% | 66% | 97% | 88% | 98% | 93% | 96% | 99% | 100% | 93% | 13% | σ [%] (sigma σ receptor): 59%; activation at 1 µM ([4]; agonist effect, percent of control specific agonist response, compounds tested at 1×10^−6M, read-out: 5-HT7-ag [%]): 0%
Cc1[nH]c2ccc(Cl)cc2c1C1=CCN(CCNS(=O)(=O)c2cccc(Cl)c2)CC1 [Compound 452, 3-Chloro-N-[2-[4-(5-chloro-2-methyl-1H-indol-3-yl)-3,6-dihydro-2H-pyridin-1-yl]ethyl]-benzenesulphonamide] | 18% | 14% | – | – | – | – | 14% | 108% | 41% | – | 42% | – | – | – | – | activation at 1 µM (dopaminergic D2 receptor [11]; HEK293, read-out: D2-ag [%]): 24%; inhibition at 1 µM (dopaminergic D2 receptor [11]; HEK293, read-out: D2-antag. [%]): 53%; inhibition at 1 µM ([12]; CHO, read-out: 5-HT1A-antag. [%]): 7%; activation at 1 µM ([12]; agonist effect, percent of control specific agonist response (100 nM 8-OH-DPAT for control), 1×10^−6 M, 5-HT1A (h), CHO cells, read-out: 5-HT1A-ag [%]): 30%
O=S(=O)(NCCCCN1CCN(c2cccc3[nH]ccc23)CC1)c1ccc(C(F)(F)F)cc1 [Compound 360, N-[4-[4-(1H-Indol-4-yl)piperazin-1-yl]butyl]-4-(trifluoromethyl)benzenesulphonamide] | 8% | 93% | – | – | – | – | 100% | 67% | 100% | – | 99% | 83% | 67% | – | 5% | –
O=S(=O)(NCCCCN1CCC(c2noc3cc(F)ccc23)CC1)c1cccc2ccccc12 [Compound 17, N-[4-[4-(6-Fluoro-1,2-benzoxazol-3-yl)piperidin-1-yl]butyl]naphthalene-1-sulphonamide] | 44% | – | 7% | 62% | 69% | 95% | 93% | 99% | 99% | 100% | 98% | 84% | 100% | 80% | 24% | activation at 1 µM ([3]; agonist effect, percent of control specific agonist response, compounds tested at 1×10^−6M, read-out: 5-HT6-ag [%]): 2%
